Earlier results, collected in publication PMC5988656, “Phase I studies of AZD1208, a proviral integration Moloney virus kinase inhibitor in solid and haematological cancers” (British Journal of Cancer, 2018).

System: AML cell lines
Details: cited from earlier work

N[C@@H]1CCCN(c2c(/C=C3\SC(=O)NC3=O)cccc2-c2ccccc2)C1 [AZD1208]
Effect on cell cycle and apoptosis: induced cell cycle arrest and apoptosis
